Where two headings read alike, the source gives them in different places.
Columns and labels:
[1] = target: T1, medium-chain acyl-CoA dehydrogenase (MC-CoA DH) (Sus scrofa, UniProt P41367); assay: Kinetic stability of enzyme adducts (return of oxidized flavin absorbance at 446 nm); format: biochemical, pig; details: for rate constant of enzyme adduct decomposition: 1.6 equivalents racemic 3,4-dienoyl-CoA (0.8 equivalent R-isomer), 9.5 μM enzyme, pH 7.6; for enzyme adduct stability relative to the corresponding full length CoA-thioester: times more stable than the CoA adduct
T1 construct: medium-chain acyl-CoA dehydrogenase (MC-CoA DH) as purified from pig kidney; from tissue; host or cells: pig kidney
T1 sequence (P41367 26-421): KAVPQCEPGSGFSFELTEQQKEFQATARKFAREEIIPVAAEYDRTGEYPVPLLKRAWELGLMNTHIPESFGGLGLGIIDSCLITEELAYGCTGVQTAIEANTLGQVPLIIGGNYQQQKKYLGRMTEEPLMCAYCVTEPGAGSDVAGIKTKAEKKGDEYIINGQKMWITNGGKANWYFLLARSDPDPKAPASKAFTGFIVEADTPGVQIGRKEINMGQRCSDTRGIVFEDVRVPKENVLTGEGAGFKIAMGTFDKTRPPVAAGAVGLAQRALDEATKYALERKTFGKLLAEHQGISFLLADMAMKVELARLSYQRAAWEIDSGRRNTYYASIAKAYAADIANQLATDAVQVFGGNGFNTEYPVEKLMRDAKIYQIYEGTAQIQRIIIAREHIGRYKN
Excerpt: The reduced flavin adduct decomposes to the 2,4-conjugated diene with the return of the oxidized flavin absorbance spectrum. This isomerization provides a measure of the kinetic stability of each of the enzyme adducts formed. The dehydrogenase enzyme used in the stability testing of the inventive compounds was medium-chain acyl-CoA dehydrogenase (MC-CoA DH) as purified from pig kidney.
(§1) General Information: Medium chain acyl-CoA dehydrogenase was purified from pig kidney as described previously (33). Porcine liver esterase (EC 3.1.1.1), CoASH (lithium salt), D-pantethine, and 5,5′-dithio-bis(2-nitrobenzoic acid) were obtained from Sigma. E,E-2,4-octadienal and E,E-2,4-dodecadienal were from Alfa and K & K Laboratories respectively. […] Thorpe et al. in Biochemistry 1979, 18, 331–337. Unless otherwise stated, buffers were 50 mM potassium phosphate, pH 7.6, containing 0.3 mM EDTA, and experiments were conducted at 25° C. Assays of the medium chain dehydrogenase were as described previously, see C. Thorpe et al. in Anal. Biochem. 1990, 186, 280–284. Static and rapid-reaction spectrophotometry were performed as reported in C. Thorpe et al, in Biochemistry 1998, 37, 10469–10477.
A solution of acyl-CoA dehydrogenase (9.5 μM in 50 mM phosphate buffer, pH 7.6, 25° C.) is mixed with 1.6 equivalents of racemic 3,4-dienoyl-CoA derivatives (0.8 equivalent of R-isomer) containing 5, 6, 7, 8, 10, 12 and 15 carbon acyl chains. The return of oxidized flavin absorbance was monitored at 446 nm. A sub-stoichiometric amount (1.6 equivalents racemate: corresponding to 0.8 equivalent of the R-isomer) is used to avoid the lag phases encountered in the presence of excess inhibitor. The return of oxidized flavin absorbance is strongly chain length dependent.
Enzyme adduct stabilities with the medium-chain acyl-CoA dehydrogenase of R-(−)-3,4-decadienoyl-CoA, R-(−)-3,4-decadienoyl-pantetheine, and R-(−)-3,4-decadienoyl N-acetylcysteamine were compared. The dehydrogenase was incubated with 0.8 equivalents of the CoA, pantetheine and N-acetylcysteamine thioesters of R-(−)-3,4-decadienoic acid until maximal bleaching of the flavin chromophore was observed. The reappearance of the oxidized flavin chromophore was then followed at 25° C.

[2] = target: T2, medium chain acyl-CoA dehydrogenase (Sus scrofa, UniProt P41367); assay: Enzyme adduct formation: bleaching of the flavin chromophore at 446 nm (stopped-flow / conventional spectrophotometry); format: biochemical, pig; details: for limiting rate of flavin bleaching / rate constant of bleaching of the flavin chromophore at 446 nm: 2° C.; for rate constant of bleaching of the flavin chromophore at 446 nm: at 50 μM; for long wavelength band: compared with the CoA compound, pantetheine at 50 μM
T2 construct: medium-chain acyl-CoA dehydrogenase (MC-CoA DH) as purified from pig kidney; from tissue; host or cells: pig kidney
T2 sequence (P41367 26-421): T1 sequence (P41367 26-421)
Procedure: as §1
(§2) Bleaching of the flavin chromophore, followed at 446 nm, is relatively rapid for the pantetheine compound, but slow enough for a conventional spectrophotometer with the N-acetylcysteamine compound. At 50 μM, the rate constants are 30.9 s^−1, 7.5 s^−1, and 0.035 s^−1 for the CoA, pantetheine, N-acetylcysteamine compounds, respectively at 2° C. Limiting rates of 33 s^−1 and 55 s^−1 are obtained for CoA and pantetheine thioesters, respectively.
Dehydrogenase and R-(−)3,4-decadienoyl-CoA are mixed in the stopped-flow spectrophotometer at 2° C. to give final concentrations of 11 μM and 60 μM. The absorbance changes at 446 and 800 nm are shown in the inset of FIG. 2. As is observed with a number of diverse thioester substrates, such as butyryl-, octanoyl- and dihydrocinnamoyl-CoA, bleaching of the flavin at 446 nm is biphasic.
The absorbance changes were recorded in a 2 cm path-length cell after mixing dehydrogenase and R-(−)-thioester in the stopped flow spectrophotometer to give final concentrations of 5.5 and 30 μM respectively in 50 mM phosphate buffer, pH 7.6 at 2° C. […] Absorbance traces at a range of wavelengths were used to construct the spectrum of the intermediate species maximal at about 20 msec.

[3] = target: T3, medium chain dehydrogenase (Sus scrofa, UniProt P41367); assay: Competition studies with the substrate octanoyl-CoA; format: biochemical, pig; set-up: medium-chain acyl-CoA dehydrogenase (MC-CoA DH) as purified from pig kidney; from tissue; host or cells: pig kidney; details: 30 μM octanoyl-CoA, 3 nM dehydrogenase
T3 sequence (P41367 26-421): T1 sequence (P41367 26-421)
Procedure: as §1
In competition studies with the substrate octanoyl-CoA, at a concentration of 30 μM, both the CoA and pantetheine analogs of the compounds of the invention are shown to be relatively strong reversible inhibitors of medium chain dehydrogenase. The assay studies included a dehydrogenase concentration of 3 nM. Compared to a control without inhibitor, 4.4 nM of the 3,4-decadienoyl-CoA analog decreased the rate to 50% within 1 minute.

[4] = Solubility observation during rate measurements; format: physicochemical
Procedure: as §2

[5] = target: T2, medium chain acyl-CoA dehydrogenase; assay: Spectral titration / inhibition of the dehydrogenase by allenic thioesters; format: biochemical, pig
Excerpt: See, Example 1. The (S)-enantiomer is rapidly isomerized to the trans-2,4-conjugated diene. […] These structural studies show a surprising, but relatively large, variation in the interaction between structurally similar inhibitors.
as §1
The spectral changes were completed rapidly before measurement could be made. Intermediate spectra are omitted for clarity. […] In FIG. 1C, the enzyme (5.06 μM in 50 mM phosphate buffer, pH 7.6, 25° C.; curve 1) was titrated with 2.53, 5.06, 36.4, 66.8, 109.3 μM of S-(+)-decadienoyl-CoA (curves 2–6, respectively). Intermediate spectra are omitted for clarity. The absorbance values at 446 nm are shown in the inset.

[6] = target: T3, medium chain dehydrogenase; details: absence of displacing ligand; cited from earlier work

CCCCCCCC=C=CCC(=O)SCCNC(=O)CCNC(=O)[C@H](O)C(C)(C)COP(=O)(O)OP(=O)(O)OC[C@H]1O[C@@H](n2cnc3c(N)ncnc32)[C@H](O)[C@@H]1OP(=O)(O)O (racemic) [3,4-dodecadienoyl-CoA]
rate constant of enzyme adduct decomposition ([1]; 25° C.): 0.18 h⁻¹

CCCCCC=C=CCC(=O)SCCNC(=O)CCNC(=O)[C@H](O)C(C)(C)CO [R-(−)-3,4-decadienoyl-pantetheine]
limiting rate of flavin bleaching [2]: 55 s⁻¹ | rate constant of bleaching of the flavin chromophore at 446 nm [2]: 7.5 s⁻¹ | long wavelength band [2]: one quarter as intense | enzyme adduct stability relative to the corresponding full length CoA-thioester [1]: ~9 times | enzyme adduct stability relative to the corresponding full length CoA-thioester ([1]; listed as (R)-3,4-decadienoyl-pantetheine): 10 times

decadienoyl-CoA
IC50 ([3]; within 1 minute, read-out: concentration that decreased the rate to 50% of control): 4.4 nM | rate constant of enzyme adduct decomposition ([1]; 25° C.): 0.12 h⁻¹

CCCCCC=C=CCC(=O)SCCNC(C)=O [R-(−)-3,4-decadienoyl-N-acetylcysteamine]
rate constant of bleaching of the flavin chromophore at 446 nm [2]: 0.035 s⁻¹ | long wavelength band [2]: no long-wavelength band was observed | regain of flavin absorbance (adduct stability in words) ([1]; 0.8 equivalents, 25° C.): no appreciable regain of the flavin absorbance after two days | enzyme adduct stability relative to the corresponding full length CoA-thioester [1]: greater than 100 times | solubility [4]: low solubility

CCC=C=CCC(=O)SCCNC(=O)CCNC(=O)[C@H](O)C(C)(C)COP(=O)(O)OP(=O)(O)OC[C@H]1O[C@@H](n2cnc3c(N)ncnc32)[C@H](O)[C@@H]1OP(=O)(O)O (racemic) [3,4-heptadienoyl-CoA]
rate constant of enzyme adduct decomposition ([1]; 25° C.): 1.9 h⁻¹

CCCCCC=C=CCC(=O)SCCNC(=O)CCNC(=O)[C@H](O)C(C)(C)COP(=O)(O)OP(=O)(O)OC[C@H]1O[C@@H](n2cnc3c(N)ncnc32)[C@H](O)[C@@H]1OP(=O)(O)O [S-(+)-3,4-decadienoyl-CoA]
inhibition of the dehydrogenase [5]: relatively weak inhibitor | flavin adduct formation ([5]; spectral titration): does not form a detectable flavin adduct

3,4-decadienoyl pantetheine [3,4-decadienoyl-pantetheine]
IC50 ([3]; read-out: concentration required to decrease the rate to 50% of control): 500 nM

CCCC=C=CCC(=O)SCCNC(=O)CCNC(=O)[C@H](O)C(C)(C)COP(=O)(O)OP(=O)(O)OC[C@H]1O[C@@H](n2cnc3c(N)ncnc32)[C@H](O)[C@@H]1OP(=O)(O)O [(S)-3,4-octadienoyl-CoA]
inhibition of the dehydrogenase [5]: very little, if any, inhibition

CCCCCCCCCCC=C=CCC(=O)SCCNC(=O)CCNC(=O)[C@H](O)C(C)(C)COP(=O)(O)OP(=O)(O)OC[C@H]1O[C@@H](n2cnc3c(N)ncnc32)[C@H](O)[C@@H]1OP(=O)(O)O (racemic) [3,4-pentadecanedienoyl-CoA]
rate constant of enzyme adduct decomposition ([1]; 25° C.): 0.27 h⁻¹

CCCC=C=CCC(=O)SCCNC(=O)CCNC(=O)[C@H](O)C(C)(C)COP(=O)(O)OP(=O)(O)OC[C@H]1O[C@@H](n2cnc3c(N)ncnc32)[C@H](O)[C@@H]1OP(=O)(O)O [(R)-3,4-octadienoyl-CoA]
inhibition of the dehydrogenase [5]: potent inhibitor

CCCC=C=CCC(=O)SCCNC(=O)CCNC(=O)[C@H](O)C(C)(C)COP(=O)(O)OP(=O)(O)OC[C@H]1O[C@@H](n2cnc3c(N)ncnc32)[C@H](O)[C@@H]1OP(=O)(O)O (racemic) [3,4-octadienoyl-CoA]
rate constant of enzyme adduct decomposition ([1]; 25° C.): 0.08 h⁻¹

C=C=CCC(=O)SCCNC(=O)CCNC(=O)[C@H](O)C(C)(C)COP(=O)(O)OP(=O)(O)OC[C@H]1O[C@@H](n2cnc3c(N)ncnc32)[C@H](O)[C@@H]1OP(=O)(O)O [3,4-pentadienoyl-CoA, reference compound]
rate constant of enzyme adduct decomposition ([1]; 25° C.): 1.6 h⁻¹ | half-life of reduced flavin adduct [6]: about 75 min

CC=C=CCC(=O)SCCNC(=O)CCNC(=O)[C@H](O)C(C)(C)COP(=O)(O)OP(=O)(O)OC[C@H]1O[C@@H](n2cnc3c(N)ncnc32)[C@H](O)[C@@H]1OP(=O)(O)O (racemic) [3,4-hexadienoyl-CoA]
rate constant of enzyme adduct decomposition ([1]; 25° C.): 8.7 h⁻¹

CCCCCC=C=CCC(=O)SCCNC(=O)CCNC(=O)[C@H](O)C(C)(C)COP(=O)(O)OP(=O)(O)OC[C@H]1O[C@@H](n2cnc3c(N)ncnc32)[C@H](O)[C@@H]1OP(=O)(O)O [R-(−)-3,4-decadienoyl-CoA]
limiting rate of flavin bleaching [2]: 33 s⁻¹ | rate constant of bleaching of the flavin chromophore at 446 nm [2]: 30.9 s⁻¹ | stoichiometry of bleaching at 446 nm ([5]; 9.6 μM enzyme, pH 7.6, 25° C., FIG. 1B inset): 0.95 equivalents

— patent US7045547B2, “Acyl-CoA dehydrogenase allenic inhibitors” (University of Delaware, priority 2002, dated 2006)
